The data set is described as follows: UC781 drug stability in compounded polyurethane after extrusion and accelerated storage. The format is physicochemical. The note with it: 4-5 week, 60° C., with and without additives. The text has this:
The drug stability in compounded lot #1100032 was also studied after extrusion and under accelerated storage conditions, with and without various antioxidants (Table 3).

We go through 1 compound from US9393311B2, “Intravaginal ring comprising polyurethane composition for drug delivery” (DSM IP ASSETS B.V., priority 2010, dated 2016).

Molecules are shown by their SMILES. Entries after “also recorded” stand apart in the source; their conditions may differ.

For `CC(C)=CCOc1cc(NC(=S)c2ccoc2C)ccc1Cl` [UC781], the “UC781 stability in compounded lot #1100032” value is given as “Irganox is incompatible with UC781; also recorded: best stability with BHT, EDTA or without any additives”.
